From patent US20230085307A1, “PYRIDAZINONE COMPOUND AND HERBICIDE” (NISSAN CHEMICAL CORPORATION, priority 2019, published 2023)

Experiments:
blackgrass = experiment: Test Example 5: herbicidal effect by foliage application, plastic box (Table 20, symbol J); format: in vivo, blackgrass (Alopecurus myosuroides); conditions: foliage application; for J: blackgrass, herbicidal effect: three weeks after application
In short: (§1)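 Plants sown in sterilized diluvial soil and grown 14 days in a greenhouse at 25° C to 30° C, then sprayed on the foliage with the compound's emulsion diluted in water to a predetermined herbicide amount. Injury to weeds and crops scored three weeks after application on a visual rating scale.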

windgrass = experiment: Test Example 5: herbicidal effect by foliage application, plastic box (Table 20, symbol L); format: in vivo, windgrass (Apera spica-venti); conditions: foliage application; for L: windgrass, herbicidal effect: three weeks after application
In short: as §1

green foxtail = experiment: Test Example 5: herbicidal effect by foliage application, plastic box (Table 20, symbol G); format: in vivo, green foxtail (Setaria viridis); conditions: foliage application; for G: green foxtail, herbicidal effect: three weeks after application
In short: as §1

lambsquarters = experiment: Test Example 5: herbicidal effect by foliage application, plastic box (Table 20, symbol O); format: in vivo, lambsquarters (Chenopodium album); conditions: foliage application; for O: lambsquarters, herbicidal effect: three weeks after application
In short: as §1

persian speedwell = experiment: Test Example 5: herbicidal effect by foliage application, plastic box (Table 20, symbol R); format: in vivo, Persian speedwell (Veronica persica); conditions: foliage application; for R: persian speedwell, herbicidal effect: three weeks after application
In short: as §1

velvetleaf = experiment: Test Example 5: herbicidal effect by foliage application, plastic box (Table 20, symbol M); format: in vivo, velvetleaf (Abutilon theophrasti); conditions: foliage application; for M: velvetleaf, herbicidal effect: three weeks after application
In short: as §1

wild oat = experiment: Test Example 5: herbicidal effect by foliage application, plastic box (Table 20, symbol I); format: in vivo, wild oat (Avena fatua); conditions: foliage application; for I: wild oat, herbicidal effect: three weeks after application
In short: as §1

southern crabgrass = experiment: Test Example 5: herbicidal effect by foliage application, plastic box (Table 20, symbol F); format: in vivo, southern crabgrass (Digitaria ciliaris); conditions: foliage application; for F: southern crabgrass, herbicidal effect: three weeks after application
In short: as §1

rice flat sedge = experiment: Test Example 3: herbicidal effect by foliage application, Wagner pot (Table 18, symbol E); format: in vivo, rice flat sedge (Cyperus iria)
In short: (§2)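 Plants were sown in alluvial soil held under 0.1–0.5 cm standing water and grown 14 days in a greenhouse at 25–30 °C. An emulsifiable formulation, water-diluted to the set dose, was then sprayed onto the foliage, and effects were scored three weeks later using previously defined criteria.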

Italian ryegrass = experiment: Test Example 5: herbicidal effect by foliage application, plastic box (Table 20, symbol K); format: in vivo, Italian ryegrass (Lolium multiflorum); conditions: foliage application; for K: Italian ryegrass, herbicidal effect: three weeks after application
In short: as §1

Chinese sprangletop = experiment: Test Example 3: herbicidal effect by foliage application, Wagner pot (Table 18, symbol D); format: in vivo, chinese sprangletop (Leptochloa chinensis)
In short: as §2

redroot pigweed = experiment: Test Example 5: herbicidal effect by foliage application, plastic box (Table 20, symbol N); format: in vivo, redroot pigweed (Amaranthus retroflexus); conditions: foliage application; for N: redroot pigweed, herbicidal effect: three weeks after application
In short: as §1

barnyard grass [1] = experiment: Test Example 5: herbicidal effect by foliage application, plastic box (Table 20, symbol H); format: in vivo, barnyard grass (Echinochloa crus-galli); conditions: foliage application; for H: barnyard grass, herbicidal effect: three weeks after application
In short: as §1

barnyard grass [2] = experiment: Test Example 3: herbicidal effect by foliage application, Wagner pot (Table 18, symbol H); format: in vivo, barnyard grass (Echinochloa crus-galli)
In short: as §2

chickweed = experiment: Test Example 5: herbicidal effect by foliage application, plastic box (Table 20, symbol P); format: in vivo, common chickweed (Stellaria media); conditions: foliage application; for P: chickweed, herbicidal effect: three weeks after application
In short: as §1

[3] = 320 g/ha, evaluated three weeks after application

Compound: COc1cc(C(F)(F)F)ccc1-c1sc2ccccc2c1-c1c(O)c(C)nn(C)c1=O [1-155]
- J: blackgrass, herbicidal effect (blackgrass; AAH 320 g/ha): 4 (Herbicidal rate of 70% or more and less than 90%)
- L: windgrass, herbicidal effect (windgrass; AAH 320 g/ha): 4 (Herbicidal rate of 70% or more and less than 90%)
- G: green foxtail, herbicidal effect (green foxtail; AAH 320 g/ha): 3 (Herbicidal rate of 40% or more and less than 70%)
- O: lambsquarters, herbicidal effect (lambsquarters; AAH 320 g/ha): 1 (Herbicidal rate of 5% or more and less than 20%)
- R: persian speedwell, herbicidal effect (persian speedwell; AAH 320 g/ha): 4 (Herbicidal rate of 70% or more and less than 90%)
- M: velvetleaf, herbicidal effect (velvetleaf; AAH 320 g/ha): 0 (Herbicidal rate of 5% or less (almost no effect))
- I: wild oat, herbicidal effect (wild oat; AAH 320 g/ha): 1 (Herbicidal rate of 5% or more and less than 20%)
- F: southern crabgrass, herbicidal effect (southern crabgrass; AAH 320 g/ha): 0 (Herbicidal rate of 5% or less (almost no effect))
- herbicidal effect on E (rice flat sedge), rating 0-5 (rice flat sedge; 320 g/ha): 3 (Herbicidal rate of 40% or more and less than 70%)
- K: Italian ryegrass, herbicidal effect (Italian ryegrass; AAH 320 g/ha): 4 (Herbicidal rate of 70% or more and less than 90%)
- herbicidal effect on D (Chinese sprangletop), rating 0-5 (Chinese sprangletop; 320 g/ha): 0 (Herbicidal rate of 5% or less (almost no effect))
- N: redroot pigweed, herbicidal effect (redroot pigweed; AAH 320 g/ha): 2 (Herbicidal rate of 20% or more and less than 40%)
- H: barnyard grass, herbicidal effect (barnyard grass [1]; AAH 320 g/ha): 1 (Herbicidal rate of 5% or more and less than 20%)
- herbicidal effect on H (barnyard grass), rating 0-5 (barnyard grass [2]; 320 g/ha): 3 (Herbicidal rate of 40% or more and less than 70%)
- P: chickweed, herbicidal effect (chickweed; AAH 320 g/ha): 5 (Herbicidal rate of 90% or more (almost completely withered))

Compound: CCCC(=O)Oc1c(OC)nn(C)c(=O)c1-c1c(-c2ccc(OC(F)(F)F)cc2)sc2ccccc12 [1-163]
- J: blackgrass, herbicidal effect (blackgrass; AAH 80 g/ha): 0 (Herbicidal rate of 5% or less (almost no effect))
- L: windgrass, herbicidal effect (windgrass; AAH 80 g/ha): 0 (Herbicidal rate of 5% or less (almost no effect))
- G: green foxtail, herbicidal effect (green foxtail; AAH 80 g/ha): 0 (Herbicidal rate of 5% or less (almost no effect))
- O: lambsquarters, herbicidal effect (lambsquarters; AAH 80 g/ha): 2 (Herbicidal rate of 20% or more and less than 40%)
- R: persian speedwell, herbicidal effect (persian speedwell; AAH 80 g/ha): 5 (Herbicidal rate of 90% or more (almost completely withered))
- M: velvetleaf, herbicidal effect (velvetleaf; AAH 80 g/ha): 0 (Herbicidal rate of 5% or less (almost no effect))
- I: wild oat, herbicidal effect (wild oat; AAH 80 g/ha): 0 (Herbicidal rate of 5% or less (almost no effect))
- F: southern crabgrass, herbicidal effect (southern crabgrass; AAH 80 g/ha): 0 (Herbicidal rate of 5% or less (almost no effect))
- herbicidal effect on E (rice flat sedge), rating 0-5 (rice flat sedge; 80 g/ha): 0 (Herbicidal rate of 5% or less (almost no effect))
- K: Italian ryegrass, herbicidal effect (Italian ryegrass; AAH 80 g/ha): 0 (Herbicidal rate of 5% or less (almost no effect))
- herbicidal effect on D (Chinese sprangletop), rating 0-5 (Chinese sprangletop; 80 g/ha): 3 (Herbicidal rate of 40% or more and less than 70%)
- N: redroot pigweed, herbicidal effect (redroot pigweed; AAH 80 g/ha): 3 (Herbicidal rate of 40% or more and less than 70%)
- H: barnyard grass, herbicidal effect (barnyard grass [1]; AAH 80 g/ha): 0 (Herbicidal rate of 5% or less (almost no effect))
- herbicidal effect on H (barnyard grass), rating 0-5 (barnyard grass [2]; 80 g/ha): 1 (Herbicidal rate of 5% or more and less than 20%)
- P: chickweed, herbicidal effect (chickweed; AAH 80 g/ha): 4 (Herbicidal rate of 70% or more and less than 90%)

Compound: COC(=O)COc1ccc(-c2sc3ccc(F)cc3c2-c2c(O)c(C)nn(C)c2=O)cc1 [2-070]
- herbicidal effect on J: blackgrass (blackgrass; [3]): 0 (Herbicidal rate of 5% or less (almost no effect))
- herbicidal effect on L: windgrass (windgrass; [3]): 0 (Herbicidal rate of 5% or less (almost no effect))
- herbicidal effect on G: green foxtail (green foxtail; [3]): 0 (Herbicidal rate of 5% or less (almost no effect))
- herbicidal effect on O: lambsquarters (lambsquarters; [3]): 0 (Herbicidal rate of 5% or less (almost no effect))
- herbicidal effect on R: persian speedwell (persian speedwell; [3]): 0 (Herbicidal rate of 5% or less (almost no effect))
- herbicidal effect on M: velvetleaf (velvetleaf; [3]): 0 (Herbicidal rate of 5% or less (almost no effect))
- herbicidal effect on I: wild oat (wild oat; [3]): 0 (Herbicidal rate of 5% or less (almost no effect))
- herbicidal effect on F: southern crabgrass (southern crabgrass; [3]): 0 (Herbicidal rate of 5% or less (almost no effect))
- herbicidal effect on E (rice flat sedge), rating 0-5 (rice flat sedge; 320 g/ha): 0 (Herbicidal rate of 5% or less (almost no effect))
- herbicidal effect on K: Italian ryegrass (Italian ryegrass; [3]): 0 (Herbicidal rate of 5% or less (almost no effect))
- herbicidal effect on D (Chinese sprangletop), rating 0-5 (Chinese sprangletop; 320 g/ha): 0 (Herbicidal rate of 5% or less (almost no effect))
- herbicidal effect on N: redroot pigweed (redroot pigweed; [3]): 2 (Herbicidal rate of 20% or more and less than 40%)
- herbicidal effect on H: barnyard grass (barnyard grass [1]; [3]): 0 (Herbicidal rate of 5% or less (almost no effect))
- herbicidal effect on H (barnyard grass), rating 0-5 (barnyard grass [2]; 320 g/ha): 2 (Herbicidal rate of 20% or more and less than 40%)
- herbicidal effect on P: chickweed (chickweed; [3]): 0 (Herbicidal rate of 5% or less (almost no effect))
